# Patent US6841577B2, “Pesticidal activity of plant essential oils and their constituents” (Ecosmart Technologies, Inc., priority 1999, dated 2005)
# Experiments:
# [1] = test system: 2nd instar green peach aphid nymphs; experiment: Cabbage leaf disc bioassay; type: in vivo
# Description: A bioassay similar to that for S. litura larvae was used for additional larvae. Cabbage leaf discs were dipped in emulsified aqueous solutions, diluted 1:200 in water, on which 2nd instar green peach aphid nymphs were placed. For each treatment there was 10 aphids per disc with 5 replicates; each experiment was replicated in time (successive days) from 3-5 times. After 24 hours, aphids were reported as being (1) on the leaf disc and feeding; (2) alive, but walking off the disc; or (3) dead. In the field, aphids which cease feeding and abandon a host plant are very unlikely to survive.
# American cockroaches = experiment: Cross walk testing with eugenol in acetone or Isopar M; type: in vivo, American cockroach; set-up: KD (knockdown), of 5: unit not given beside the values
# Description: Additional “cross walk” testing was conducted with eugenol. Table 18 provides data for 5% (by volume) eugenol in acetone and Table 19 provides data for 1% eugenol in acetone wherein five (5) American cockroaches were placed in the screened jars after the acetone had evaporated. IM=immobilized; KD=knockdown; D=dead; L=live (no effect).
# Table 20 provides data for 5% (by volume) eugenol in 95% Isopar M and Table 21 provides data for 1% (by volume) eugenol in 99% Isopar M. Isopar M is an isoparaffinic hydrocarbon sold by Exxon Corporation.
# [2] = test system: octopamine receptor sites; experiment: 3H-OA binding to ventral nerve cord / synaptosomal membrane protein; set-up: species or system American cockroach (Periplaneta americana); conditions: for cpm 3H-OA/500 μg protein: Table 1, solvent control 1280 ± 259
# Description: Different concentrations of unlabeled octopamine (OA) (20, 30, 40, 50, 60, 100 ng) were tested on the binding activity as a positive control. Test chemicals were dissolved in acetone before the assay. Different concentrations of the test chemicals were added directly to the protein preparation from ventral nerve cord. The same amount of solvent (1 μl 0.1%) were added to the control samples. All assays with test chemicals were run in the presence and absence of 50 ng OA. All chemicals were added to the protein extract 20 min prior the addition of radio labeled ^3H-OA(100,000 cpm/sample). After 30 min at 24° C. of the addition of ^3H-OA, the reaction was stopped by the addition of ice-cold Tris buffer, and the samples were filtered through GF/C membrane using water vacuum. After two washes each with 5 ml Tris buffer, the membrane was removed, air dried and the radioactivity was counted in 4 ml liquid scintillation solution. The specific binding was calculated as the difference between the values in the presence and absence of unlabeled OA. All data are calculated as the mean±standard deviation of 5 assays.
# Additional tests were conducted on radio labeled octopamine using other purified naturally occurring materials as given in Tables 2 and 3.
# [3] = test system: heart of American cockroach (octopamine receptors); experiment: Heartbeat after application to thoracic segment; type: in vivo; conditions: mean ±SD of three roaches
# Description: To further establish the effect of the purified naturally occurring plant essential oils and/or their constituents on the American cockroach, a 300 μg amount of the chemical was applied to the thoracic segment of an intact and alive American cockroach. The heart beats/30 seconds was measured. The heart of the cockroach is known to have a high concentration of octopamine receptors and the heart beat is considered an important measurement to indicate the effect of the applied chemicals to the octopamine receptors.
# American cockroach [4] = experiment: Cross walk jar test on pre-treated surface; type: in vivo; conditions: Periplaneta americana, 24 h
# Description: In the test, a known amount of the test material was dissolved in a known volume of acetone and applied to small jars and all inner bottom surfaces were covered. The bottom surface of each jar is approximately 250 cm^2. One hour after the acetone had completely evaporated, five American cockroaches were introduced to each jar. Control jars were treated exactly as above but with the known amount of acetone only.
# The results of the “cross walk” jar tests are in Table 8 in which the “4-blend” was dispersed as an aerosol and a dust in the jar.
# In this test, the acetone solution of the test material was placed in the jar and the roach inserted into the jar after the acetone had evaporated.
# Mortality was measured 24 hours after exposure.
# The “4-blend” and the individual constituents of the “4-blend” were tested using 10 cockroaches for each “cross walk” treatment. In addition, pyrethrins were tested separately and mixed with the various components.
# A concentration of 100 mg/jar was used for each individual alone. In the co-treatment experiment without pyrethrins, 20 mg/jar for each chemical was used. In the cotreatment experiment with pyrethrins, 20 mg/jar for the naturally occurring plant material was used. Pyrethrins was used at 2 mg/jar. […] It was noted above that the mortality is dependent upon concentration. […] Some synergism is found between pyrethrins and either α-terpineol or benzyl alcohol.
# American cockroach [5] = experiment: Lethal effect of injected test chemicals; type: in vivo; conditions: dead/10
# Description: Further studies were conducted to determine the LD 50 of purified naturally occurring plant essential oils and/or their constituents. […] Ten roaches per dose were used. Another group of ten roaches received the same volume of vehicle only (0.5 μl) and used as a control group. Mortality was recorded 24, 48, and 72 hours after exposure.
# [6] = 1% eugenol in 99% Isopar M, 2 min
# [7] = 1% eugenol in 99% Isopar M, 5 min
# [8] = 1% eugenol in 99% Isopar M, 45 min
# [9] = 5% eugenol in 95% Isopar M, 2 min
# [10] = 5% eugenol in 95% Isopar M, 5 min
smiles,measurement,setting,value
C=CCc1ccc(O)c(OC)c1 [eugenol],"activity on green peach aphid nymphs, in words",[1]; 1:200 dilution,somewhat more active
same,Percentage of aphids Walking (off disc),"[1]; diluted 1:200 in water, after 24 hours, n = 250, Table 16, control 23.4",38.3%
same,Percentage of aphids Dead,"[1]; diluted 1:200 in water, after 24 hours, n = 250, Table 16, control 24.8",44.3%
same,Percentage of aphids Feeding,"[1]; diluted 1:200 in water, after 24 hours, n = 250, Table 16, control 51.7",17.7%
same,"D (dead), of 5",American cockroaches; [6],2/5
same,"IM (immobilized), of 5",American cockroaches; [6],1/5
same,"KD (knockdown), of 5",American cockroaches; [6],1/5
same,"D (dead), of 5",American cockroaches; [7],3/5
same,"IM (immobilized), of 5",American cockroaches; [7],1/5
same,"IM (immobilized), of 5","American cockroaches; 1% eugenol in 99% Isopar M, 15 min",2/5 IM
same,"IM (immobilized), of 5","American cockroaches; 1% eugenol in 99% Isopar M, 30 min",2/5 IM
same,"D (dead), of 5",American cockroaches; [8],4/5
same,"IM (immobilized), of 5",American cockroaches; [8],1/5
same,"IM (immobilized), of 5","American cockroaches; 1% eugenol in 99% Isopar M, 1 hr.",1/5 IM
same,"D (dead), of 5","American cockroaches; 1% eugenol in 99% Isopar M, 1.5 hr.",5/5 D
same,"L (live, no effect), of 5","American cockroaches; 1% eugenol in acetone, 2 min",5/5 L
same,"L (live, no effect), of 5","American cockroaches; 1% eugenol in acetone, 30 min",5/5 L
same,"IM (immobilized), of 5","American cockroaches; 1% eugenol in acetone, 45 min",3/5 IM
same,"IM (immobilized), of 5","American cockroaches; 1% eugenol in acetone, 1 hr.",3/5
same,"KD (knockdown), of 5","American cockroaches; 1% eugenol in acetone, 1 hr.",1/5
same,"IM (immobilized), of 5","American cockroaches; 1% eugenol in acetone, 1.5 hr.",3/5
same,"KD (knockdown), of 5","American cockroaches; 1% eugenol in acetone, 1.5 hr.",1/5
same,"IM (immobilized), of 5","American cockroaches; 1% eugenol in acetone, 2 hr.",3/5
same,"KD (knockdown), of 5","American cockroaches; 1% eugenol in acetone, 2 hr.",1/5
same,"IM (immobilized), of 5","American cockroaches; 1% eugenol in acetone, 4 hr.",3/5
same,"KD (knockdown), of 5","American cockroaches; 1% eugenol in acetone, 4 hr.",1/5
same,"IM (immobilized), of 5","American cockroaches; 1% eugenol in acetone, 24 hr., (KD/IM recover)",2/5 IM (KD/IM recover)
same,"D (dead), of 5",American cockroaches; [9],2/5
same,"IM (immobilized), of 5",American cockroaches; [9],1/5
same,"D (dead), of 5",American cockroaches; [10],4/5
same,"IM (immobilized), of 5",American cockroaches; [10],1/5
same,"D (dead), of 5","American cockroaches; 5% eugenol in 95% Isopar M, 10 min",5/5 D
same,"IM (immobilized), of 5","American cockroaches; 5% eugenol in acetone, 2 min",1/5 IM
same,"IM (immobilized), of 5","American cockroaches; 5% eugenol in acetone, 5 min",1/5 IM
same,"IM (immobilized), of 5","American cockroaches; 5% eugenol in acetone, 15 min",3/5 IM
same,"IM (immobilized), of 5","American cockroaches; 5% eugenol in acetone, 30 min",3/5
same,"KD (knockdown), of 5","American cockroaches; 5% eugenol in acetone, 30 min",1/5
same,"IM (immobilized), of 5","American cockroaches; 5% eugenol in acetone, 45 min",3/5
same,"KD (knockdown), of 5","American cockroaches; 5% eugenol in acetone, 45 min",1/5
same,"IM (immobilized), of 5","American cockroaches; 5% eugenol in acetone, 1 hr.",4/5
same,"KD (knockdown), of 5","American cockroaches; 5% eugenol in acetone, 1 hr.",1/5
same,"IM (immobilized), of 5","American cockroaches; 5% eugenol in acetone, 1.5 hr.",4/5
same,"KD (knockdown), of 5","American cockroaches; 5% eugenol in acetone, 1.5 hr.",1/5
same,"IM (immobilized), of 5","American cockroaches; 5% eugenol in acetone, 2 hr.",4/5
same,"KD (knockdown), of 5","American cockroaches; 5% eugenol in acetone, 2 hr.",1/5
same,"D (dead), of 5","American cockroaches; 5% eugenol in acetone, 4 hr.",4/5
same,"KD (knockdown), of 5","American cockroaches; 5% eugenol in acetone, 4 hr.",1/5
same,"D (dead), of 5","American cockroaches; 5% eugenol in acetone, 24 hr.",5/5 D
same,"effectiveness as a pesticide for American cockroaches, in words","American cockroaches; 5% eugenol, in both modes of use (acetone, Isopar M)",highly effective
same,cpm 3H-OA/500 μg protein,[2]; 300 ng test chemical,818 ± 93 cpm 3H-OA/500 μg protein
same,cpm 3H-OA/500 μg protein,[2]; 500 ng test chemical,730 ± 59 cpm 3H-OA/500 μg protein
same,cpm 3H-OA/500 μg protein,[2]; 700 ng test chemical,453 ± 39 cpm 3H-OA/500 μg protein
same,cpm 3H-OA/500 μg protein,[2]; 1000 ng test chemical,226 ± 15 cpm 3H-OA/500 μg protein
same,cpm 3H-OA/500 μg protein,[2]; 1500 ng test chemical,200 ± 17 cpm 3H-OA/500 μg protein
same,classification with respect to octopamine receptor sites (OAR),[2]; based on the binding data of Tables 1-3,high OAR antagonists
same,Heart beat/30 sec 30 min after treatment,[3]; 300 μg applied to thoracic segment,24 ± 1 beat/30 sec
same,Heart beat/30 sec before treatment,[3]; baseline of the same roaches,55 ± 3 beat/30 sec
same,mortality at 100 mg,American cockroach [4],100%
same,Mortality 24 hr after treatment,American cockroach [5]; 300 μg,2/10
same,Mortality 24 hr after treatment,American cockroach [5]; 400 μg,3/10
same,Mortality,"American cockroach [5]; 500 μg/roach injected into thoracic and abdominal segments, 24 hr.",6/10
same,Mortality,"American cockroach [5]; 500 μg/roach injected, 48 hr.",6/10
same,Mortality,"American cockroach [5]; 500 μg/roach injected, 72 hr., control 1/10",6/10
same,Mortality 24 hr after treatment,American cockroach [5]; 500 μg,5/10
same,Mortality 24 hr after treatment,American cockroach [5]; 600 μg,8/10
same,Mortality 24 hr after treatment,American cockroach [5]; 700 μg,9/10
